The target of test [1] is hSTING(R232) (Homo sapiens, UniProt Q86WV6, H232R). Description: Luciferase reporter assay in HEK293T-hSTING-Luciferase cells, R232 (wild type) human STING. Conditions: 20 hr stimulation, read-out: R232 human activity (EC50 range). It is filed as cell-based. A digest of the protocol: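 Clonal HEK293T cells stably expressing STING from a pUNO-1 plasmid plus an ISRE/ISG54-driven secreted luciferase reporter; 5×10^5 cells stimulated with compound for 20 hr. Supernatant luciferase read by luminescence, giving fold-induction over baseline and EC50.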
Sequence of hSTING(R232) (Q86WV6 whole entry H232R): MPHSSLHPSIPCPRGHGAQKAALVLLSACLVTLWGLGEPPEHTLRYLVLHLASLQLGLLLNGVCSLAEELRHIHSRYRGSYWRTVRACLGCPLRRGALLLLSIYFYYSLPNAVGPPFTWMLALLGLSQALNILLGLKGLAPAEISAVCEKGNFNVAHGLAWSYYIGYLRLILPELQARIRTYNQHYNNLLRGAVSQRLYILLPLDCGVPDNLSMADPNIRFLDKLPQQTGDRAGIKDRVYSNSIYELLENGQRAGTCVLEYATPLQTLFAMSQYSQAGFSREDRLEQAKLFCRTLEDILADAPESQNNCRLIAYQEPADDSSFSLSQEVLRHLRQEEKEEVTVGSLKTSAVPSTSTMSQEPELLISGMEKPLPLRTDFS
(In general: A reporter such as luciferase makes a cellular process visible.)

Test [2] concerns the target cynomolgus monkey STING protein (Macaca fascicularis, UniProt A0A2R3XZA6). Description: Luciferase reporter assay, cynomolgus monkey STING overexpressed in HEK293T cells. The conditions noted are these: cynomolgus monkey STING overexpressed in HEK293T cells; read-out: Cynomolgus monkey STING activity (EC50 range). Type of test: cell-based. In outline:
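HEK293T cells overexpressing cynomolgus STING with a secreted luciferase reporter were stimulated with compound for 20 hr. Supernatant reporter activity was then measured by Quanti-Luc luminescence, and EC50 values were derived.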

The target in test [3] is hSTING(H232) (Homo sapiens, UniProt Q86WV6). Description: Luciferase reporter assay in HEK293T-hSTING-Luciferase cells, H232/REF polymorph. It is filed as cell-based. Conditions: H232/REF polymorph of human STING, EC50 range class. In outline:
(§1)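 HEK293T cells stably co-express the hSTING variant (hEF1-HTLV promoter) and an ISRE/ISG54 IRF-inducible luciferase reporter. Clones with minimal ligand-independent activation were used. Cells were stimulated with compounds for 20 hr, and secreted luciferase in the supernatant was read by luminescence to give EC50.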

Test [4] deals with hSTING(HAQ) (Homo sapiens, UniProt Q86WV6, G230A/H232R/R293Q/R71H). The experiment in a line: Luciferase reporter assay in HEK293T-hSTING-Luciferase cells, HAQ polymorph. Type of test: cell-based. Conditions: HAQ polymorph of human STING, EC50 range class. In outline: as §1
Sequence of hSTING(HAQ) (Q86WV6 whole entry R71H/G230A/H232R/R293Q): as the sequence (Q86WV6 whole entry H232R) above, with R71H, G230A, R293Q counted along it
Test [5] relates to IRF pathway. Description: Reporter gene expression assay in THP1-Dual cells, IRF axis (secreted Lucia luciferase). Conditions: Homo sapiens, 20 hr stimulation, EC50 range class, read-out: THP-IRF activity. Type of test: cell-based, human. A digest of the protocol: (§2)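 Human THP-1 monocyte-derived cells with two inducible reporters: 5×10^5 cells seeded and stimulated with compounds for 20 hr. SEAP (QUANTI-Blue) and Lucia luciferase (QUANTI-Luc) measured in supernatant; EC50 values reported as ranges.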

The subject of test [6] is NF-κB pathway. The experiment in a line: Reporter gene expression assay in THP1-Dual cells, NFkB axis (secreted SEAP). It is filed as cell-based, human. Conditions: Homo sapiens, 20 hr stimulation, EC50 range class, read-out: THP-NFκB activity. In outline:
as §2

Bounds are passed on as bounds.

The values below come from patent US11571423B2, “Small molecule modulators of human sting” (Curadev Pharma Limited, priority 2017, dated 2023).

Sequence of hSTING(H232) (Q86WV6 whole entry): as the sequence (Q86WV6 whole entry H232R) above, with R232H counted along it
Sequence of cynomolgus monkey STING protein (A0A2R3XZA6 entry or part of it): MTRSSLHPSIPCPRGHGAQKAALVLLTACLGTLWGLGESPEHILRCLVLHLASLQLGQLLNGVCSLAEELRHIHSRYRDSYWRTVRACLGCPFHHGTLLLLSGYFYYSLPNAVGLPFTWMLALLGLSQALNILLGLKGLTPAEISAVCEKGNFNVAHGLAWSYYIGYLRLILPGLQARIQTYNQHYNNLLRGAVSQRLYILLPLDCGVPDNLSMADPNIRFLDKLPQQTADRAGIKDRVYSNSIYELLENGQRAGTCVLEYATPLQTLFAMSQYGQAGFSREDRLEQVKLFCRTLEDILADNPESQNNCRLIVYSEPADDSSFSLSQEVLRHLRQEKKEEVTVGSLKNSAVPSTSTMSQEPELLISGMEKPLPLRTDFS

As to `C[C@H]1c2ccc(C(=O)NCc3c(F)cc(F)cc3F)cc2N(Cc2c(F)ccc(F)c2Cl)C(=O)N1C` [Example 179, (S)-1-(2-chloro-3,6-difluorobenzyl)-3,4-dimethyl-2-oxo-N-(2,4,6-trifluorobenzyl)-1,2,3,4-tetrahydroquinazoline-7-carboxamide], the EC50 in test [1], in test [2], in test [3], in test [4], in test [5] and in test [6] was less than 1000 nM in each case.
Take `Cc1nccc(CN2C(=O)N(C)C(C)c3ccc(C(=O)NCc4c(F)cc(F)cc4F)cc32)c1F` (stereo not drawn) [Example 180, 1-((3-fluoro-2-methylpyridin-4-yl)methyl)-3,4-dimethyl-2-oxo-N-(2,4,6-trifluorobenzyl)-1,2,3,4-tetrahydroquinazoline-7-carboxamide]: the EC50 in test [1], in test [2], in test [3], in test [4], in test [5] and in test [6] was less than 1000 nM throughout.
As to `C[C@H]1c2ccc(C(=O)NCc3c(F)cc(F)cc3F)cc2N(Cc2c(N)cccc2F)C(=O)N1C` [Example 182, (S)-1-(2-amino-6-fluorobenzyl)-3,4-dimethyl-2-oxo-N-(2,4,6-trifluorobenzyl)-1,2,3,4-tetrahydroquinazoline-7-carboxamide], the EC50 in test [1], in test [2], in test [3], in test [4], in test [5] and in test [6] was less than 1000 nM in each case.
In the case of `C[C@H]1c2ccc(C(=O)NCc3c(F)cc(F)cc3F)cc2N(Cc2c(F)ccc(N)c2Cl)C(=O)N1C` [Example 188, (S)-1-(3-amino-2-chloro-6-fluorobenzyl)-3,4-dimethyl-2-oxo-N-(2,4,6-trifluorobenzyl)-1,2,3,4-tetrahydroquinazoline-7-carboxamide], the EC50 in test [1], in test [2], in test [3], in test [4], in test [5] and in test [6] was less than 1000 nM in each case.
Regarding `C[C@H]1c2ccc(C(=O)NCc3c(F)cc(F)cc3F)cc2N(Cc2c(F)cncc2Br)C(=O)N1C` [Example 232, (S)-1-((3-bromo-5-fluoropyridin-4-yl)methyl)-3,4-dimethyl-2-oxo-N-(2,4,6-trifluorobenzyl)-1,2,3,4-tetrahydroquinazoline-7-carboxamide], the EC50 in test [1], in test [2], in test [3], in test [4], in test [5] and in test [6] was less than 1000 nM each time.
Regarding `COc1ccc(F)c(F)c1CN1C(=O)N(C)[C@@H](C)c2ccc(C(=O)NCc3c(F)cc(F)cc3F)cc21` [Example 241, (S)-1-(2,3-difluoro-6-methoxybenzyl)-3,4-dimethyl-2-oxo-N-(2,4,6-trifluorobenzyl)-1,2,3,4-tetrahydroquinazoline-7-carboxamide], the EC50 in test [1], in test [2], in test [3], in test [4], in test [5] and in test [6] was less than 1000 nM each time.
Regarding `C[C@H]1c2ccc(C(=O)NCc3c(F)cc(F)cc3F)cc2N(Cc2c(O)ccc(F)c2F)C(=O)N1C` [Example 242, (S)-1-(2,3-difluoro-6-hydroxybenzyl)-3,4-dimethyl-2-oxo-N-(2,4,6-trifluorobenzyl)-1,2,3,4-tetrahydroquinazoline-7-carboxamide], the EC50 in test [1], in test [2], in test [3], in test [4], in test [5] and in test [6] was less than 1000 nM throughout.
Consider `C[C@H]1c2ccc(C(=O)NCc3c(F)cc(F)cc3F)cc2N(Cc2c(F)ccc(OCCCO)c2F)C(=O)N1C` [Example 257, (S)-1-(2,6-difluoro-3-(3-hydroxypropoxy)benzyl)-3,4-dimethyl-2-oxo-N-(2,4,6-trifluorobenzyl)-1,2,3,4-tetrahydroquinazoline-7-carboxamide], for which the EC50 in test [1] is less than 1000 nM; in test [2], 1000 to 10000 nM; in test [3] it was less than 1000 nM; in test [4], less than 1000 nM; in test [5] it was less than 1000 nM; in test [6] it was less than 1000 nM.
For `Cc1nccc(CN2C(=O)N(C)[C@@H](C)c3ccc(C(=O)NCc4c(F)cc(F)cc4F)cc32)c1F` [Example 261, (S)-1-((3-fluoro-2-methylpyridin-4-yl)methyl)-3,4-dimethyl-2-oxo-N-(2,4,6-trifluorobenzyl)-1,2,3,4-tetrahydroquinazoline-7-carboxamide], the EC50 in test [1], in test [2], in test [3], in test [4], in test [5] and in test [6] was less than 1000 nM in each case.
Take `C[C@H]1c2ccc(C(=O)NCc3c(F)cc(F)cc3F)cc2N(Cc2cc(O)ccc2F)C(=O)N1C` [Example 262, (S)-1-(2-fluoro-5-hydroxybenzyl)-3,4-dimethyl-2-oxo-N-(2,4,6-trifluorobenzyl)-1,2,3,4-tetrahydroquinazoline-7-carboxamide]: the EC50 in test [1], in test [2], in test [3], in test [4], in test [5] and in test [6] was less than 1000 nM each time.
For `C[C@H]1c2ccc(C(=O)NCc3c(F)cc(F)cc3F)cc2N(Cc2cc(O)cc(F)c2F)C(=O)N1C` [Example 281, (S)-1-(2,3-difluoro-5-hydroxybenzyl)-3,4-dimethyl-2-oxo-N-(2,4,6-trifluorobenzyl)-1,2,3,4-tetrahydroquinazoline-7-carboxamide], the EC50 in test [1], in test [2], in test [3], in test [4], in test [5] and in test [6] was less than 1000 nM each time.
As to `C[C@H]1c2ccc(C(=O)NCc3c(F)cc(F)cc3F)cc2N(Cc2cc(OCCCO)cc(F)c2F)C(=O)N1C` [Example 283, (S)-1-(2,3-difluoro-5-(3-hydroxypropoxy)benzyl)-3,4-dimethyl-2-oxo-N-(2,4,6-trifluorobenzyl)-1,2,3,4-tetrahydroquinazoline-7-carboxamide], the EC50 in test [1] is less than 1000 nM; in test [2], 1000 to 10000 nM; in test [3], less than 1000 nM; in test [4] it was less than 1000 nM; in test [5], less than 1000 nM; in test [6] it was less than 1000 nM.
As for `C[C@H]1c2ccc(C(=O)NCc3c(F)cc(F)cc3F)cc2N(Cc2c(F)cc(OCCNS(C)(=O)=O)cc2F)C(=O)N1C` [Example 290, (S)-1-(2,6-difluoro-4-(2-(methylsulfonamido)ethoxy)benzyl)-3,4-dimethyl-2-oxo-N-(2,4,6-trifluorobenzyl)-1,2,3,4-tetrahydroquinazoline-7-carboxamide], the EC50 in test [1], in test [2], in test [3], in test [4], in test [5] and in test [6] was less than 1000 nM in each case.
As for `COc1cnc(C)c(F)c1CN1C(=O)N(C)[C@@H](C)c2ccc(C(=O)NCc3c(F)cc(F)cc3F)cc21` [Example 296, (S)-1-((3-fluoro-5-methoxy-2-methylpyridin-4-yl)methyl)-3,4-dimethyl-2-oxo-N-(2,4,6-trifluorobenzyl)-1,2,3,4-tetrahydroquinazoline-7-carboxamide], the EC50 in test [1], in test [2], in test [3], in test [4], in test [5] and in test [6] was less than 1000 nM throughout.
On to `C[C@H]1c2ccc(C(=O)NCc3c(F)cc(F)cc3F)cc2N(Cc2c(F)cc(O)cc2Cl)C(=O)N1C` [Example 298, (S)-1-(2-chloro-6-fluoro-4-hydroxybenzyl)-3,4-dimethyl-2-oxo-N-(2,4,6-trifluorobenzyl)-1,2,3,4-tetrahydroquinazoline-7-carboxamide], for which the EC50 in test [1], in test [2], in test [3], in test [4], in test [5] and in test [6] was less than 1000 nM throughout.
